The target of test [1] is EhMySH3 (SH3 domain of EhMyosin IB) (Entamoeba histolytica, UniProt C4LUC7). Nature of the test: SPR binding of peptides to immobilized EhMySH3 (Autolab SPR). The conditions noted are these: for Kd: SPR kinetic analysis, peptide passed over immobilized EhMySH3, 10 mM HEPES, 150 mM NaCl, 3 mM EDTA, 0.05% NP-40, pH 7.4, 25°C, text: values could not be calculated accurately (peptides about 1000 Da), read-out: Binding affinity (KD, equilibrium dissociation constant); for relative SPR binding response: 0.8 mM of each peptide passed over immobilized EhMySH3, compared with the other peptides. The protocol:
For binding studies of EhMySH3 with peptides, an Autolab SPR apparatus was used at the Advanced Instrumentation Research Facility, Jawaharlal Nehru University, New Delhi, India. Here, the 11-mercaptoundecanoic acid (11MUA) monolayer on the surface of the gold chip (Autolab) was activated by N-hydroxysuccinimide (NHS; 0.05 M)/[…] (EDC; 0.2 M). EhMySH3 protein (ligand) at a concentration of 37 μM was immobilized in channel 1 on the activated surface of the gold chip in 10 mM sodium acetate buffer (pH 5.0) up to 700 RU. During experimentation, channel 1 was used to pass the analytes (peptides) while channel 2 was used as a blank (the signals of the analyte with a ligand-free surface). After ligand immobilization, the surface was blocked with 100 mM ethanolamine at pH 8.5, followed by regeneration using 50 mM NaOH. The different peptides, each at various concentrations, were each injected at a rate of 20 μl/min across the sensor chip surface and the association kinetics and dissociation kinetics were monitored for 200 s and 100 s, respectively. All of the dilutions were done in running buffer, i.e., 10 mM HEPES, 150 mM NaCl, 3 mM EDTA, 0.05% NP-40 surfactant [pH 7.4].
All of the data were recorded at 25°C. For the evaluation of the kinetics, differential sensorgrams were analyzed using Autolab SPR Kinetic Evaluation software.

The target of test [2] is filamentous rabbit muscle actin (F-actin) (rabbit) (UniProt P68135).
The target is the same in test [3]. Kind of test: SPR; Autolab SPR; F-actin immobilised (0.67 ng/mm^3; 50 mM sodium acetate pH 4.1, 0.05 mM CaCl2, 0.05 mM ATP, 0.125 mM DTT), cterEhFP10 at various concentrations passed over; 25 C.
In test [4] the target is c-terminal SH3 domain of EhMyosin IB (EhMySH3) (Entamoeba histolytica). Kind of test: SPR; Autolab SPR; EhMySH3 immobilised (1.175 ng/mm^3), cterEhFP10 at various concentrations passed over; association 400 s, dissociation 150 s; 25 C. Background: In SPR one partner is held on a chip, and binding of the other changes the refractive index at the surface.
Test [5] has the same target. Nature of the test: SPR; Autolab SPR; EhMySH3 immobilised on an 11-MUA gold chip (NHS/EDC, up to 700 RU), peptides injected at 20 ul/min; 10 mM HEPES, 150 mM NaCl, 3 mM EDTA, 0.05% NP-40, pH 7.4; 25 C.

Ends that are not written are not given here.

The text below walks through data of publication PMC6396940, “EhFP10: A FYVE family GEF interacts with myosin IB to regulate cytoskeletal dynamics during endocytosis in Entamoeba histolytica” (PLoS Pathogens, 2019).

Usually Kd stands for the equilibrium constant for the complex coming apart.

Consider NIVPIQPPQ [P3], for which the dissociation constant Kd in test [1] was 1000 µM.

For QHCPNVPII [P5], in test [1], the dissociation constant Kd was 700 µM.

On to SLPPKPLR [P1], for which the Kd in test [1] is 400 µM.

In turn, “c-terminal domain of EhFP10 (cterEhFP10) (domain or fragment)” came in with a thickness of actin bundles by TEM, filaments of 4 nm to 7 nm without and bundles with 10 uM to 20 uM cterEhFP10 in test [2] of 120 nm. Further, the values for the equilibrium dissociation constant (Kd) in test [3] and in test [4] were 0.087 µM and 0.2 µM, respectively.

Consider “RPQPPTP [P4, class I peptide RPQPPTP from EhFP10]”, for which the “relative SPR binding response” value in test [1] is given as “weakest binding”.

As for “KVAPPIPHR [P2, pseudo-symmetrical class I + II peptide … from EhFP10, co-crystallized with EhMySH3]”, the “relative SPR binding response” value in test [1] is on record as “highest binding response”.

NIVPIQPPQ (not fully specified) [peptide P3 from Rho family GTPase] returned a Kd in test [5] of 1000 µM.

Molecule QHCPNVPII (not fully specified) [peptide P5 from Rho family GTPase] registered a Kd in test [5] of 700 µM.
